Structures can show the parent of a compound that is named as a salt.
What follows are compounds tested against T1, Human complement C1s enzyme (Homo sapiens, UniProt P09871) (assay: Human C1s Enzyme Assay). Conditions: human C1s 1.16 nM, 5 min preincubation, substrate Z-L-Lys-SBzl 100 μM, A405; read-out: C1s Protease Activity.
T1 construct: purified from human serum, Complement Technology, Inc; purchased Complement Technology, Inc; host or cells: human serum
T1 sequence (P09871 438-688 limits assumed): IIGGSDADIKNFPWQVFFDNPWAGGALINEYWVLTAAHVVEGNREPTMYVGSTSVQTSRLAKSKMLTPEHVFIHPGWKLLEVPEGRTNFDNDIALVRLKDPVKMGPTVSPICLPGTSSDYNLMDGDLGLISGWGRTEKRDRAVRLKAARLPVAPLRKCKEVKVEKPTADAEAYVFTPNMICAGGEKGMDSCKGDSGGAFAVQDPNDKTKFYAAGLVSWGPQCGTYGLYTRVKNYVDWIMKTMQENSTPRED
T1 sequence (P09871 16-437 partner limits assumed): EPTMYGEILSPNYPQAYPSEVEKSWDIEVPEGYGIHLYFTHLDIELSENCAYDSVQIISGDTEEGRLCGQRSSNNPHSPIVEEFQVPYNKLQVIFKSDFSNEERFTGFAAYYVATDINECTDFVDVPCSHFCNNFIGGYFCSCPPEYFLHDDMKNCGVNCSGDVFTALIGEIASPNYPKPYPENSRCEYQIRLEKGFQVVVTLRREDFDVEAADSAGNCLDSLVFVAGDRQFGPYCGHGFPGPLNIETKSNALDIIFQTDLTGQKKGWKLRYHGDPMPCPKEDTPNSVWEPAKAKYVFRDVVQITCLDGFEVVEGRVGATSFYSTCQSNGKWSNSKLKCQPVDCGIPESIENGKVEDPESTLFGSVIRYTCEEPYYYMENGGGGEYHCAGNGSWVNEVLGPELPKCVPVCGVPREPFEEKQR
Format: biochemical
Procedure: The assay of Example 3 was used to determine the IC50's of the compounds. Other standard complement assays are also available.
Example 3. Human C1s Enzyme Assay
Human complement C1s enzyme (purified from human serum, Complement Technology, Inc.) at 1.16 nM final concentration was incubated with test compound at various concentrations for 5 min at room temperature in 50 mM Tris, 1 M NaCl, pH 7.5. A synthetic substrate Z-L-Lys-SBzl and DTNB (Ellman's reagent) were added to final concentrations of 100 μM each. Absorbance at 405 nm (A405) was recorded at 30 second intervals for 30 min using a microplate spectrophotometer. IC50 values were calculated by nonlinear regression of complement C1s reaction rates as a function of test compound concentration.
For `N=C(N)c1csc([C@@H](NC(=O)[C@@H]2C[C@@H](OC(F)F)CN2C(=O)CNC(=O)c2ccc(Oc3ccccc3)cc2)C(N)=O)c1` (relative stereo) [Compound 214, (2S,4R)-N-((S*)-2-amino-1-(4-carbamimidoylthiophen-2-yl)-2-oxoethyl)-4-(difluoromethoxy)-1-((4-phenoxybenzoyl)glycyl)pyrrolidine-2-carboxamide], the IC50 was over 1000 nM.
`COC[C@H]1C[C@@H](C(=O)N[C@H](C)c2cc(C(=N)N)cs2)N(C(=O)CNC(=O)c2ccc(Oc3ccccc3)cc2)C1` (relative stereo) [Compound 252, (2S,4S*)-N-((R)-1-(4-carbamimidoylthiophen-2-yl)ethyl)-4-(methoxymethyl)-1-((4-phenoxybenzoyl)glycyl)pyrrolidine-2-carboxamide] was tested, and the IC50 was under 100 nM.
With `C[C@H](NC(=O)[C@@H]1C[C@]2(C)C[C@@H]2N1C(=O)CNC(=O)c1ccc(Oc2ccccc2)cc1)c1cc(C(=N)N)cs1` (single isomer, unassigned) [Compound 47, (1S,3S,5S)-N-((S*)-1-(4-carbamimidoylthiophen-2-yl)ethyl)-5-methyl-2-((4-phenoxy-benzoyl)glycyl)-2-azabicyclo[3.1.0]hexane-3-carboxamide] the IC50 was under 100 nM.
In the case of `C[C@@H](NC(=O)[C@@H]1C[C@]2(C)C[C@@H]2N1C(=O)CNC(=O)c1ccc(Oc2ccccc2)cc1)c1cc(C(=N)N)cs1` (single isomer, unassigned) [Compound 49, (1S,3S,5S)-N-((R*)-1-(4-carbamimidoylthiophen-2-yl)ethyl)-5-methyl-2-((4-phenoxy-benzoyl)glycyl)-2-azabicyclo[3.1.0]hexane-3-carboxamide], the IC50 is reported as 100 to 1000 nM.
With `N=C(N)c1csc([C@H](NC(=O)[C@@H]2C[C@@H](OC(F)F)CN2C(=O)CNC(=O)c2ccc(Oc3ccccc3)cc2)C(N)=O)c1` (single isomer, unassigned) [Compound 215] the IC50 was over 1000 nM.
`CC(C)C(NC(=O)[C@@H]1C[C@@H](OC(F)F)CN1C(=O)CNC(=O)c1ccc(Oc2ccccc2)cc1)c1cc(C(=N)N)cs1` (stereo in doubt) [Compound 188, (2S,4R)-N-((S)-1-(4-carbamimidoylthiophen-2-yl)-2-methylpropyl)-4-(difluoromethoxy)-1-((4-phenoxybenzoyl)glycyl)pyrrolidine-2-carboxamide] gave an IC50 of over 1000 nM.
With `N=C(N)c1csc(CNC(=O)[C@@H]2CC(c3nccs3)CN2C(=O)CNC(=O)c2ccc(Oc3ccccc3)cc2)c1` (stereo in doubt) [Compound 209, (2S,4R)-N-((4-carbamimidoylthiophen-2-yl)methyl)-1-((4-phenoxybenzoyl)glycyl)-4-(thiazol-2-yl)pyrrolidine-2-carboxamide] the IC50 was under 100 nM.
`N=C(N)c1csc(CNC(=O)[C@@H]2CC(OC(F)(F)F)CN2C(=O)CNC(=O)c2ccc(Oc3ccccc3)cc2)c1` (stereo in doubt) [Compound 247, (2S,4S)-N-((4-carbamimidoylthiophen-2-yl)methyl)-1-((4-phenoxybenzoyl)glycyl)-4-(trifluoromethoxy)pyrrolidine-2-carboxamide] showed an IC50 of under 100 nM.
Work on `N=C(N)c1csc(CNC(=O)[C@@H]2CC(=C(F)F)CN2C(=O)CNC(=O)c2ccc(Oc3ccccc3)cc2)c1` [Compound 1, (S)-N-((4-carbamimidoylthiophen-2-yl)methyl)-4-(difluoromethylene)-1-((4-phenoxybenzoyl)glycyl)pyrrolidine-2-carboxamide] yielded an IC50 of under 100 nM.
Work on `C[C@@]12C[C@@H]1N(C(=O)CNC(=O)c1ccc(Oc3ccccc3)cc1)[C@H](C(=O)NCc1nc(C(=N)N)cs1)C2` [Compound 2, (1S,3S,5S)-N-((4-carbamimidoylthiazol-2-yl)methyl)-5-methyl-2-((4-phenoxy-benzoyl)glycyl)-2-azabicyclo[3.1.0]hexane-3-carboxamide] yielded an IC50 of under 100 nM.
Compound `C[C@@]12C[C@@H]1N(C(=O)CNC(=O)c1ccc(Oc3ccc(S(C)(=N)=O)cc3)cc1)[C@H](C(=O)NCc1cc(C(=N)N)cs1)C2` (stereo partly drawn) [Compound 3, (1S,3S,5S)-N-((4-carbamimidoylthiophen-2-yl)methyl)-5-methyl-2-((4-(4-(S-methyl-sulfonimidoyl)phenoxy)benzoyl)glycyl)-2-azabicyclo[3.1.0]hexane-3-carboxamide] has an IC50 of under 100 nM.
With `C[C@@]12C[C@@H]1N(C(=O)CNC(=O)c1ccc(Oc3ccccc3)cc1)[C@H](C(=O)NCc1ccc(C(=N)N)cn1)C2` [Compound 4] the IC50 was 100 to 1000 nM.
In the case of `C[C@@]12C[C@@H]1N(C(=O)CNC(=O)c1ccc(Oc3ccccc3)cc1)[C@H](C(=O)NCc1ccc(N)nc1)C2` [Compound 5], the IC50 is reported as 100 to 1000 nM.
`CO/N=C(\N)c1csc(CNC(=O)[C@@H]2C[C@]3(C)C[C@@H]3N2C(=O)CNC(=O)c2ccc(Oc3ccccc3)cc2)c1` [Compound 6, (1S,3S,5S)-N-((4-((Z)-N′-methoxycarbamimidoyl)thiophen-2-yl)methyl)-5-methyl-2-((4-phenoxybenzoyl)glycyl)-2-azabicyclo[3.1.0]hexane-3-carboxamide] was tested, and the IC50 was over 1000 nM.
Compound `N=C(N)c1csc(CNC(=O)[C@@H]2CCC(=O)N2C(=O)CNC(=O)c2ccc(Oc3ccccc3)cc2)c1` [Compound 7, (S)-N-((4-carbamimidoylthiophen-2-yl)methyl)-5-oxo-1-((4-phenoxybenzoyl)glycyl)-pyrrolidine-2-carboxamide] has an IC50 of under 100 nM.
With `C[C@@]12C[C@@H]1N(C(=O)CNC(=O)c1ccc(Oc3ccccc3)cc1)[C@H](C(=O)NCc1cc(C(N)=O)cs1)C2` [Compound 8, (1S,3S,5S)-N-((4-carbamoylthiophen-2-yl)methyl)-5-methyl-2-((4-phenoxybenzoyl)-glycyl)-2-azabicyclo[3.1.0]hexane-3-carboxamide] the IC50 was over 1000 nM.
`N=C(N)c1csc(CNC(=O)[C@@H]2C[C@]3(CO)C[C@@H]3N2C(=O)CNC(=O)c2ccc(Oc3ccccc3)cc2)c1` [Compound 9, (1S,3S,5R)-N-((4-carbamimidoylthiophen-2-yl)methyl)-5-(hydroxymethyl)-2-((4-phenoxybenzoyl)glycyl)-2-azabicyclo[3.1.0]hexane-3-carboxamide] showed an IC50 of under 100 nM.
`CC(=O)NCc1cc(C(=O)NCC(=O)N2[C@H]3C[C@@]3(C)C[C@H]2C(=O)NCc2cc(C(=N)N)cs2)ccc1Oc1ccccc1` [Compound 10] gave an IC50 of under 100 nM.
`C[C@@]12C[C@@H]1N(C(=O)CNC(=O)c1ccc(Oc3ccccc3)cc1)[C@H](C(=O)NCc1cc(/C(N)=N/[N+](=O)[O-])cs1)C2` [Compound 11, (1S,3S,5S)-5-methyl-N-((4-((Z)-N′-nitrocarbamimidoyl)thiophen-2-yl)methyl)-2-((4-phenoxybenzoyl)glycyl)-2-azabicyclo[3.1.0]hexane-3-carboxamide] showed an IC50 of over 1000 nM.
For `CCCCCCOC(=O)/N=C(\N)c1csc(CNC(=O)[C@@H]2C[C@]3(C)C[C@@H]3N2C(=O)CNC(=O)c2ccc(Oc3ccccc3)cc2)c1` [Compound 12, hexyl ((Z)-amino(5-(((1S,3S,5S)-5-methyl-2-((4-phenoxybenzoyl)glycyl)-2-azabicyclo-[3.1.0]hexane-3-carboxamido)methyl)thiophen-3-yl)methylene)carbamate], the IC50 was over 1000 nM.
For `C[C@@]12C[C@@H]1N(C(=O)CNC(=O)c1ccc(Oc3ccccc3)cc1)[C@H](C(=O)NCc1cc(/C(N)=N/S(C)(=O)=O)cs1)C2` [Compound 13, (1S,3S,5S)-5-methyl-N-((4-((Z)-N′-(methylsulfonyl)carbamimidoyl)thiophen-2-yl)-methyl)-2-((4-phenoxybenzoyl)glycyl)-2-azabicyclo[3.1.0]hexane-3-carboxamide], the IC50 was over 1000 nM.
With `COC[C@H]1C[C@@H](C(=O)NCc2cc(C(=N)N)cs2)N(C(=O)CNC(=O)c2ccc(Oc3ccccc3)cc2)C1` [Compound 14, (2S,4S)-N-((4-carbamimidoylthiophen-2-yl)methyl)-4-(methoxymethyl)-1-((4-phenoxybenzoyl)glycyl)pyrrolidine-2-carboxamide hydrochloride] the IC50 was under 100 nM.
Work on `N=C(N)c1csc(CNC(=O)[C@@H]2C[C@H](c3ccccc3)CN2C(=O)CNC(=O)c2ccc(Oc3ccccc3)cc2)c1` [Compound 15, (2S,4R)-N-((4-carbamimidoylthiophen-2-yl)methyl)-1-((4-phenoxybenzoyl)glycyl)-4-phenylpyrrolidine-2-carboxamide] yielded an IC50 of 100 to 1000 nM.
For `N=C(N)c1csc(CNC(=O)C23CCC(CC2)N3C(=O)CNC(=O)c2ccc(Oc3ccccc3)cc2)c1` [Compound 16, N-((4-carbamimidoylthiophen-2-yl)methyl)-7-((4-phenoxybenzoyl)glycyl)-7-azabicyclo[2.2.1]heptane-1-carboxamide], the IC50 was 100 to 1000 nM.
